Target: T1, FoF1-ATP synthase F1 α-subunit (GFP-PTP tagged) (Trypanosoma brucei brucei, UniProt Q9GS23)
T1 construct: expressed in transfected cells; host or cells: procyclic-form T. brucei strain 29-13, stably transfected with MfeI-linearised pC-F1α-GFP-PTP (recombination into the endogenous gene)
Experiment: In vivo photo-affinity labelling of GFP-PTP-tagged F1 α-subunit, Cy5.5 detection
Format: binding
Details: 50 μM, in vivo pulse-chase, UV 365 nm
Description: Fig 7 B-THP-Ts bind to C-terminal GFP-PTP tagged F1 α- and β- subunits. (A) Stably transfected PF T. brucei cells endogenously-expressing F1 α-GFP-PTP or F1 β-GFP-PTP were loaded with MitoTracker Red CMXros (red) and DAPI (blue) and imaged microscopically to determine localisation of GFP-PTP-tagged protein. […] (B) Following in vivo photo-affinity labelling with 50 μM compound 3 or compound 1 (negative control), GFP-PTP-tagged F1 α- and β-subunits were affinity purified and Cy5.5 clicked on. Proteins were separated by SDS-PAGE and a western blot was performed with mouse anti-GFP / anti-mouse-DyLight 800. […]
Pulse-chase in vivo photo-affinity labelling with bi-functional compound 3 (and lead compound 1 as negative control) was performed on cells from both cell lines expressing GFP-PTP-tagged F1 α- or β-subunits. Tagged subunits were immobilised on IgG-sepharose beads, purified, and Cy5.5 fluorescent reporter clicked on, and proteins were detected by western blotting (Fig 7B). […] In trypanosomatids (but not in other organisms) the native α-subunit is expressed as a 63 KDa protein which is then cleaved by an unknown protease to 20 KDa N-terminal and 43 KDa C-terminal domains, both of which remain associated with the FoF1-ATP synthase complex. […]

T1 sequence (Q9GS23 160-584): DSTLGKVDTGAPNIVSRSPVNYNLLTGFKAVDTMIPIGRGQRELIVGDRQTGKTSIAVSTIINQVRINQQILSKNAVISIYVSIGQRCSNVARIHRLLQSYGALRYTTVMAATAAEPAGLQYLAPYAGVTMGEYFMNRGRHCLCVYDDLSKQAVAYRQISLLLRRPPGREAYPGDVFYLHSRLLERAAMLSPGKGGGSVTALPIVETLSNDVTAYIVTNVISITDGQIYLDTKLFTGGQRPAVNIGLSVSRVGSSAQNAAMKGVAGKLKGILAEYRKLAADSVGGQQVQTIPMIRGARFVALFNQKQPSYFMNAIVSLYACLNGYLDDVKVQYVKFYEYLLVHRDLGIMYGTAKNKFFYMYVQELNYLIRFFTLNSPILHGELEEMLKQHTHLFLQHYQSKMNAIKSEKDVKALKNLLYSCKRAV

**Q.** With `C#CCNC(=O)CCC[C@H]1CC2(C[C@@H](Cn3cc([C@@H]4CCC[C@H](CCCCOCc5ccccc5)O4)nn3)O1)N=N2` [Compound 3] as the compound, how does the “UV-conjugation (Cy5.5 labelling at 700 nm) to F1 α-GFP-PTP” value read?
**A.** can UV-conjugate

Reference: PMC5608556, “Photo-affinity labelling and biochemical analyses identify the target of trypanocidal simplified natural product analogues” (PLoS Neglected Tropical Diseases, 2017)
